Two compounds from patent publication US20240247215A1, “BIOMIMETIC SYSTEM AND METHOD FOR MANUFACTURING SAME” (JSR CORPORATION, priority 2021, published 2024) can be followed below.

The target in data set [1] is T1, BCRP (Homo sapiens, UniProt Q9UNQ0).
T1 construct: the human cholangiocyte-like cells further express at least one or more transporters selected from the group consisting of MRP2, BSEP, and BCRP; endogenous in cells; host or cells: human cholangiocyte-like cells (bile duct organoid derived) on a permeable insert
T1 sequence (Q9UNQ0 1-655): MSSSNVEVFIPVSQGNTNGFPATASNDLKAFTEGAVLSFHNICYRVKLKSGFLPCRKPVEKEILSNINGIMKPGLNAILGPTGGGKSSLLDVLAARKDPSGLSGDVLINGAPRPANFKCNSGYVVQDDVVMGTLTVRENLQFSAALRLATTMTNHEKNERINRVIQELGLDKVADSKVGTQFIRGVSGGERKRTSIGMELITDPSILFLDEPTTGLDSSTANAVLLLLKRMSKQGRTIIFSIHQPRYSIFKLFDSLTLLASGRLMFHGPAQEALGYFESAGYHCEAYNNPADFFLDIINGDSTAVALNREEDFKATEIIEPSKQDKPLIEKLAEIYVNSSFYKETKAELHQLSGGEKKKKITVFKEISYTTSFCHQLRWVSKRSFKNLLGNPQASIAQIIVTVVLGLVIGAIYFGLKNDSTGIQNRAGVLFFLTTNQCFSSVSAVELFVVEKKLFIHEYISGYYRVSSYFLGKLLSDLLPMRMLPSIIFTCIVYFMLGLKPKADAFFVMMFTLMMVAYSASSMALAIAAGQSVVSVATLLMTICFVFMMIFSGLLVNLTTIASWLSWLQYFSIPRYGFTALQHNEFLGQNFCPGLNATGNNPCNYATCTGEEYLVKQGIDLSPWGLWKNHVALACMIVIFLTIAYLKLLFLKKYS
The data set can be described thus: Efflux ratio of Hoechst 33342 (BCRP substrate) in biomimetic system. It counts as in vitro ADME. As to conditions: Hoechst 33342 as substrate; system as Manufacturing Example 1, 15 culture days; average of four measurements. As to the method: The efflux ratio of Hoechst 33342 (CAS number: 23491-52-3), which is a substrate for BCRP, was measured by using the biomimetic system.
Human cholangiocyte-like cells were manufactured by a method similar to that used in Experimental Example 9. In addition, a biomimetic system was manufactured in the same manner as in Manufacturing Example 1 of Experimental Example 2, except that the number of culture days was set to 15 days. The TEER of the manufactured biomimetic system was measured by the same method as that used in Experimental Example 2, and the value was 284.83 Ω·cm^2.
The transport amounts of Hoechst 33342 were measured in the same manner as in Experimental Example 3, except that Hoechst 33342 was used in place of rhodamine 123 as a substrate. Regarding Hoechst 33342, a solution obtained by dissolving the substance in deionized water to a concentration of 1% by mass was used.
FIG. 12A is a graph showing the results of measuring the transport amount (BtoA) four times, and FIG. 12B is a graph showing the results of measuring the transport amount (AtoB) four times. The axis of abscissa in the graph represents the time (minutes), and the axis of ordinate represents the amount (pmoL) of transported Hoechst 33342. The efflux ratio calculated in the same manner as in Experimental Example 3 from the average value of the results of the four measurements was about 23.0.

For data set [2], the target named is T2, P-gp (Homo sapiens, UniProt P08183).
T2 construct: the human cholangiocyte-like cells express P-glycoprotein (P-gp); endogenous in cells; host or cells: human cholangiocyte-like cells derived from human bile duct organoids (from human primary hepatocytes), grown as a 2D membrane on a permeable insert
As to the kind of experiment: Efflux ratio by P-gp: rhodamine 123 transport (AtoB/BtoA) across human cholangiocyte-like cell-containing membrane. It counts as in vitro ADME. To be noted: rhodamine 123 10 μM. How it is done: FIG. 4A and FIG. 4B are graphs showing the measurement results of the transport amount (AtoB) and the transport amount (BtoA). […] In addition, as shown in FIG. 4A and FIG. 4B, approximation curves were each created based on the graphs of the transport amount (AtoB) and the transport amount (BtoA), and the gradient (permeation rate) was calculated. Subsequently, the efflux ratio (Efflux Ratio (ER)) was calculated based on Formula (2).
Efflux ratio=(Permeation rate of BtoA)/(permeation rate of AtoB) (2)
FIG. 6A to FIG. 6D are graphs showing the measurement results of the transport amount (AtoB) and the transport amount (BtoA). […] Each of FIG. 6A, FIG. 6B, FIG. 6C, and FIG. 6D presents the results of using a culture medium including Matrigel (registered trademark) at a concentration of 0, 0.1, 0.5, or 2 v/v %. In addition, as shown in FIG. 6A to FIG. 6D, approximation curves were each created based on the graphs of the transport amount (AtoB) and the transport amount (BtoA), and the gradient (permeation rate) was calculated. Subsequently, the efflux ratio was calculated based on the above-described Formula (2).
FIG. 7A to FIG. 7C are graphs showing the measurement results of the transport amount (AtoB) and the transport amount (BtoA). Each of FIG. 7A, FIG. 7B, and FIG. 7C presents the results of using a container coated with Matrigel (registered trademark) at a concentration of 2, 5, or 10 v/v %. In addition, as shown in FIG. 7A to FIG. 7C, approximation curves were each created based on the graphs of the transport amount (AtoB) and the transport amount (BtoA), and the gradient (permeation rate) was calculated. Subsequently, the efflux ratio was calculated based on the above-described Formula (2).

T2 sequence (P08183 whole entry): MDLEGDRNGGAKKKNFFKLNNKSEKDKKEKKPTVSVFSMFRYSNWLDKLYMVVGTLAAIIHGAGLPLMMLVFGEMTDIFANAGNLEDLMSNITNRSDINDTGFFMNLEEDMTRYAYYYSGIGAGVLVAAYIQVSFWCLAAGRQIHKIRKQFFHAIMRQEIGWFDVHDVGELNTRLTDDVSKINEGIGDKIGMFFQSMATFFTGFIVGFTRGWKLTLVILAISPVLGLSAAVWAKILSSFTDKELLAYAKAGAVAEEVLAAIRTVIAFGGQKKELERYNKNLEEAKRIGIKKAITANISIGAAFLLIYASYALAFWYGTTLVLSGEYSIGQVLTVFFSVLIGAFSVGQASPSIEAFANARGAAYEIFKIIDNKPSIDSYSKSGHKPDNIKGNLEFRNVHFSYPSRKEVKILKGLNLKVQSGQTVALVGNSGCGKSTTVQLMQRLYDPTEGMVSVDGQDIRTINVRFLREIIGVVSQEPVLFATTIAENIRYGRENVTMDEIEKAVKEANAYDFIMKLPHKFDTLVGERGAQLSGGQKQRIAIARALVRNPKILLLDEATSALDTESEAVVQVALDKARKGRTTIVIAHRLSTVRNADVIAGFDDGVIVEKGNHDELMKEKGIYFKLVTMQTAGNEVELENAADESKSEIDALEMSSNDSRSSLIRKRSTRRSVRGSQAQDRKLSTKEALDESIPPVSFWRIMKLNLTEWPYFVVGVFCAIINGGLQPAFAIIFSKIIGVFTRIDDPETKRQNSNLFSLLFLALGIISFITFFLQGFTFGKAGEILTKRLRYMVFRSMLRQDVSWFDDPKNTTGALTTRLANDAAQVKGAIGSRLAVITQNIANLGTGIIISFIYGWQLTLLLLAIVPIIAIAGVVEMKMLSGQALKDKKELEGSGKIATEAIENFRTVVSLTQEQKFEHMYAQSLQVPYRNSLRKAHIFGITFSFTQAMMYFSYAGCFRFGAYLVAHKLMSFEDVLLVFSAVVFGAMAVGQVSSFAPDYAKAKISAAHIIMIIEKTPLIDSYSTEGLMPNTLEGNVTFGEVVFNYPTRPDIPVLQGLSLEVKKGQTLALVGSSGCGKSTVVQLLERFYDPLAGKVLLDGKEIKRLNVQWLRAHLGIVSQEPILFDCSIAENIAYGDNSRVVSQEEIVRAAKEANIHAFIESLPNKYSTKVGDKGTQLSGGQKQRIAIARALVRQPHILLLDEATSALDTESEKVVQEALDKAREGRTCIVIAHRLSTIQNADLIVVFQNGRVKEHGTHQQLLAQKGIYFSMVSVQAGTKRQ

For the compound `CCOc1ccc(-c2nc3ccc(-c4nc5ccc(N6CCN(C)CC6)cc5[nH]4)cc3[nH]2)cc1` [Hoechst 33342], the Efflux ratio entry in data set [1] is recorded as “about 23.0”.

rhodamine 123: the Efflux ratio turned out to be 1.7 in data set [2] (Production Example 3, Matrigel 0 v/v % in culture medium, Day 17); 1.7 in data set [2] (Production Example 4, Matrigel 0.1 v/v % in culture medium, Day 17); 2.2 in data set [2] (Production Example 5, Matrigel 0.5 v/v % in culture medium, Day 17); 1.3 in data set [2] (Production Example 7, Matrigel 2 v/v % in culture medium, Day 17); 4.93 in data set [2] (Production Example 9, insert coated with 2 v/v % Matrigel, 14 culture days); 4.70 in data set [2] (Production Example 10, insert coated with 5 v/v % Matrigel, 14 culture days). In addition, the Efflux ratio in data set [2] (Production Example 11, insert coated with 10 v/v % Matrigel, 14 culture days) was found to be 3.89; in data set [2] (biomimetic system of Manufacturing Example 2, Day 17 from start of culture), 7.3; in data set [2] (biomimetic system of Manufacturing Example 2, Day 23 from start of culture) it was 11.6.
